Source: patent publication US11702414B2, “Thiadiazole IRAK4 inhibitors” (Gilead Sciences, Inc., priority 2018, dated 2023)
Read-outs that look alike come from different tables or passages of the source.

Columns and labels:
TNFα = assay: IRAK4 Monocyte TNFα Cell Based Assay; parameters: species or system human; settings: human monocytes, second part of Table 2 (compounds 33-343), unit inferred, read-out: EC50MONO TNF HTRF
IRAK4 enzyme = IRAK4 enzyme (Homo sapiens (Human), UniProt Q9NWZ3); assay: IRAK4 Biochemical Assay (TR-FRET, STK1 KinEASE)
Sequence of IRAK4 enzyme (Q9NWZ3 whole entry): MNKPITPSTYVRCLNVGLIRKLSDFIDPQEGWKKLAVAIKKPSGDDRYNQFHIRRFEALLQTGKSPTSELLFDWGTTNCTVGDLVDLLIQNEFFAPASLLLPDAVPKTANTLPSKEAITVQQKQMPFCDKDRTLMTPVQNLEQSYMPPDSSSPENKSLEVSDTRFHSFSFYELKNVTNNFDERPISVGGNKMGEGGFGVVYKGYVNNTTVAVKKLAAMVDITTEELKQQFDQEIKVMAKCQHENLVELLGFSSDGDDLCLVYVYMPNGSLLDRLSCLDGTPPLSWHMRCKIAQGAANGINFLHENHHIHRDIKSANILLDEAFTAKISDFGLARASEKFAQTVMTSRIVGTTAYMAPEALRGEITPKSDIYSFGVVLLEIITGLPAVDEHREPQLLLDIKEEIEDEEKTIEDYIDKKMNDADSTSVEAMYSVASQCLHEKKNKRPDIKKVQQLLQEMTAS

[1] = second part of Table 2 (compounds 33-343), unit inferred, read-out: IC50 IRAK4-HTBS

Work on `CC(C)Nc1cc(-c2ccc3cc(C#N)cnn23)ncc1-c1nnc(N2CC3(CCNC3=O)C2)s1` [Example 164, 7-(4-(isopropylamino)-5-(5-(5-oxo-2,6-diazaspiro[3.4]octan-2-yl)-1,3,4-thiadiazol-2-yl)pyridin-2-yl)pyrrolo[1,2-b]pyridazine-3-carbonitrile] yielded an EC50 (TNFα; Homo sapiens, Monocyte) of 17.5 nM and an IC50 (IRAK4 enzyme) of 0.55 nM.

Work on `CC(C)Nc1cc(-c2ccc3cc(C#N)cnn23)ncc1-c1nnc(N2CCC(O)(C(F)(F)F)CC2)s1` [Example 172, 7-(5-(5-(4-hydroxy-4-(trifluoromethyl)piperidin-1-yl)-1,3,4-thiadiazol-2-yl)-4-(isopropylamino)pyridin-2-yl)pyrrolo[1,2-b]pyridazine-3-carbonitrile] yielded an EC50 (TNFα; Homo sapiens, Monocyte) of 34.4 nM and an IC50 (IRAK4 enzyme) of 2.99 nM.

For `C[C@H](C#N)Nc1cc(-c2ccc3cc(C#N)cnn23)ncc1-c1nnc(N2CCC(C)(O)CC2)s1` [Example 180, (R)-7-(4-((1-cyanoethyl)amino)-5-(5-(4-hydroxy-4-methylpiperidin-1-yl)-1,3,4-thiadiazol-2-yl)pyridin-2-yl)pyrrolo[1,2-b]pyridazine-3-carbonitrile], the EC50 (TNFα; Homo sapiens, Monocyte) was 6.8 nM and the IC50 (IRAK4 enzyme) was 0.4 nM.

`CC1(O)CCN(c2nnc(-c3cnc(-c4ccc5cc(C#N)cnn45)cc3NC3(C)COC3)s2)CC1` [Example 181, 7-(5-(5-(4-hydroxy-4-methylpiperidin-1-yl)-1,3,4-thiadiazol-2-yl)-4-((3-methyloxetan-3-yl)amino)pyridin-2-yl)pyrrolo[1,2-b]pyridazine-3-carbonitrile] gave an EC50 (TNFα; Homo sapiens, Monocyte) of 18.4 nM and an IC50 (IRAK4 enzyme) of 0.36 nM.

`CC(C)Nc1cc(-c2ccc3cc(C#N)cnn23)ncc1-c1nnc(N2CC[C@@](C)(O)[C@@H](F)C2)s1` [Example 186, 7-(5-(5-((3S,4R)-3-fluoro-4-hydroxy-4-methylpiperidin-1-yl)-1,3,4-thiadiazol-2-yl)-4-(isopropylamino)pyridin-2-yl)pyrrolo[1,2-b]pyridazine-3-carbonitrile] showed an EC50 (TNFα; Homo sapiens, Monocyte) of 8.4 nM and an IC50 (IRAK4 enzyme) of 0.95 nM.

`CC(C)Nc1cc(-c2ccc3cc(C#N)cnn23)ncc1-c1nnc(N2CCC(O)(CF)CC2)s1` [Example 189, 7-(5-(5-(4-(fluoromethyl)-4-hydroxypiperidin-1-yl)-1,3,4-thiadiazol-2-yl)-4-(isopropylamino)pyridin-2-yl)pyrrolo[1,2-b]pyridazine-3-carbonitrile] showed an EC50 (TNFα; Homo sapiens, Monocyte) of 16.3 nM and an IC50 (IRAK4 enzyme) of 1.02 nM.

`CC(C)Nc1cc(-c2ccc3cc(C#N)cnn23)ncc1-c1nnc(C(=O)N2CC[C@@H](CO)C2)s1` [Example 216, (R)-7-(5-(5-(3-(hydroxymethyl)pyrrolidine-1-carbonyl)-1,3,4-thiadiazol-2-yl)-4-(isopropylamino)pyridin-2-yl)pyrrolo[1,2-b]pyridazine-3-carbonitrile] showed an EC50 (TNFα; Homo sapiens, Monocyte) of 18.1 nM and an IC50 (IRAK4 enzyme) of 0.78 nM.

`CC(=O)NC1CC2CC1CC2c1nnc(-c2cnc(-c3ccc4cc(C#N)cnn34)cc2NC(C)C)s1` (stereo not shown) [Example 285, N-(5-(5-(6-(3-cyanopyrrolo[1,2-b]pyridazin-7-yl)-4-(isopropylamino)pyridin-3-yl)-1,3,4-thiadiazol-2-yl)bicyclo[2.2.1]heptan-2-yl)acetamide] was tested, and the EC50 (TNFα; Homo sapiens, Monocyte) was 68 nM and the IC50 (IRAK4 enzyme) was 0.78 nM.

`CC(C)Nc1cc(-c2ccc3cc(C#N)cnn23)ncc1-c1nnc(N2CCC(C)(O)CC2)s1` [Example 287, 7-(5-(5-(4-hydroxy-4-methylpiperidin-1-yl)-1,3,4-thiadiazol-2-yl)-4-(isopropylamino)pyridin-2-yl)pyrrolo[1,2-b]pyridazine-3-carbonitrile] was tested, and the EC50 (TNFα; Homo sapiens, Monocyte) was 9.8 nM and the IC50 (IRAK4 enzyme) was 0.86 nM.

`CC(=O)N1C[C@@H]2C[C@H]1CN2c1nnc(-c2cnc(-c3ccc4cc(C#N)cnn34)cc2NC(C)C)s1` [Example 302, 7-(5-(5-((1S,4S)-5-acetyl-2,5-diazabicyclo[2.2.1]heptan-2-yl)-1,3,4-thiadiazol-2-yl)-4-(isopropylamino)pyridin-2-yl)pyrrolo[1,2-b]pyridazine-3-carbonitrile] showed an EC50 (TNFα; Homo sapiens, Monocyte) of 5.3 nM and an IC50 (IRAK4 enzyme) of 0.59 nM.

Work on `CC(C)Nc1cc(-c2ccc3cc(C#N)cnn23)ncc1-c1nnc(N2CCN(C3COC3)CC2)s1` [Example 304, 7-(4-(isopropylamino)-5-(5-(4-(oxetan-3-yl)piperazin-1-yl)-1,3,4-thiadiazol-2-yl)pyridin-2-yl)pyrrolo[1,2-b]pyridazine-3-carbonitrile] yielded an EC50 (TNFα; Homo sapiens, Monocyte) of 9.8 nM and an IC50 (IRAK4 enzyme) of 0.54 nM.

“(S)-1-(5-(6-(3-cyanopyrrolo[1,2-b]pyridazin-7-yl)-4-(oxetan-3-ylamino)pyridin-3-yl)-1,3,4-thiadiazol-2-yl)-N-methylpyrrolidine-2-carboxamide [Compound 332]” showed an EC50 (TNFα) of 435 nM and an IC50 (IRAK4 enzyme; [1]) of 1.61 nM.

With “N1-((1R,5S,8s)-3-(5-(6-(3-cyanopyrrolo[1,2-b]pyridazin-7-yl)-4-(isopropylamino)pyridin-3-yl)-1,3,4-thiadiazol-2-yl)-3-azabicyclo[3.2.1]octan-8-yl)-N2-(dimethyl(oxo)-16-sulfanylidene)oxalamide [Example 103]” the EC50 (TNFα) was 1.4 nM and the IC50 (IRAK4 enzyme; [1]) was 0.51 nM.

“N-((1R,5S,8s)-3-(5-(6-(3-cyanopyrrolo[1,2-b]pyridazin-7-yl)-4-(isopropylamino)pyridin-3-yl)-1,3,4-thiadiazol-2-yl)-3-azabicyclo[3.2.1]octan-8-yl)-2-((dimethyl(oxo)-16-sulfanylidene)amino)acetamide [Example 98]” was tested, and the EC50 (TNFα) was 3.2 nM and the IC50 (IRAK4 enzyme; [1]) was 1.13 nM.
